For the test, the system named is human SOD1 promoter. As to the kind of experiment: SOD1 promoter-EGFP reporter high through-put screening assay in stably transfected PC12 cells. In kind it is cell-based, rat. The settings on record: PC12 stable cell line treated 24 hrs with increasing mitomycin C concentration; FIG. 2. An excerpt:
We have developed a cell-based, fluorescent high through-put screening assay to identify compounds that reduce SOD1 expression using a stable rat pheochromocytoma PC12 cell line with 2.2 kb of human SOD1 promoter sequence driving EGFP expression (FIG. 1).
The human SOD1 promoter was amplified by PCR from a control DNA sample using primers 5′ […] 3′ (SEQ ID NO:3) and 5′ […] 3′ (SEQ ID NO:4). Restriction sites were incorporated into the primers although these were not used for the cloning but to aid transfer into additional vectors in the future. PCR reactions were carried out in a final volume of 40 μl on a thermocycler (Hybaid). PCR reactions contained a final concentration of 3 U Taq polymerase (New England Biolabs, Beverly, Mass.), 150 ng of DNA, 1×PCR buffer, […] of each dNTP, 40 pmoles of forward and reverse primers (MWG-Biotech, High Point, N.C.), 2.5 mM MgCl2, and 5% DMSO. […]
Initial testing of the assay has been carried out using a known inhibitor of SOD1 expression, mitomycin C (Cho C., et al., (1997), The transcriptional repression of the human Cu/Zn superoxide dismutase(sod1) gene by the anticancer drug, mitomycin C(MMC), Biochem Mol Biol Int., 42:949-56). […] The level of EGFP fluorescence was read on a Wallac plate reader (Perkin Elmer, Boston, Mass.) (excitation 485 nm, emission 535 nm). […]

As for `CO[C@@]12[C@H](COC(N)=O)C3=C(C(=O)C(C)=C(N)C3=O)N1C[C@@H]1N[C@@H]12` [mitomycin C], the “EGFP fluorescence (relative expression level)” value is reported as “progressive decrease in fluorescence”.

Values taken from patent US20050202488A1, “Assay for therapies that inhibit expression of the cytosolic Cu/Zn superoxide dismutase (SOD1) gene” (The General Hospital Corporation, priority 2004, published 2005).
